Data from patent US12297238B2, “FimH mutants, compositions therewith and use thereof” (Janssen Pharmaceuticals, Inc., priority 2021, dated 2025).

Assays:
Settings in all cases: SPR, HBS-N pH 7.4, single cycle kinetics
[1] = molecular target: E. coli FimH lectin domain (FimHLD 23-10, SEQ ID NO: 1) variant R60P (Escherichia coli, UniProt P08191, R81P/V48A)
Experimental: (§1) To gain a detailed insight into the binding affinity and kinetics of the interaction of FimH lectin domain variants with the n-Heptyl-α-D-mannopyranoside ligand, surface plasmon resonance (SPR) measurements were performed. In brief, the FimH variants were titrated into the Mannoside ligand 5 surface (Rabbani S et al, J Biol. Chem., 2018, 293(5):1835-1849) with the top concentrations of either 3 or 10 μM in HBS-N(0.01 M HEPES, pH 7.4, 0.15 M NaCl, 3 mM EDTA, 0.05% surfactant P20). The proteins were injected from 0.12 to 10 μM or 0.036 to 3.0 μM using a single cycle kinetics injection.
(§2) These mutants were taken as positive controls. […] Additionally, wild-type (WT) FimH lectin domain was taken along as a negative control.
(§3) The variants affinity for binding to mannose was assessed using SPR.

[2] = molecular target: E. coli FimH lectin domain (FimHLD 23-10, SEQ ID NO: 1) variant R60P-Q133K (Escherichia coli, UniProt P08191, Q154K/R81P/V48A)
Experimental: as §1, §2, §3

[3] = molecular target: E. coli FimH lectin domain (FimHLD 23-10, SEQ ID NO: 1) variant F71Y (Escherichia coli, UniProt P08191, F92Y/V48A)
Experimental: as §1, §2, §3

[4] = molecular target: E. coli FimH lectin domain (FimHLD 23-10, SEQ ID NO: 1) variant Q133K (Escherichia coli, UniProt P08191, Q154K/V48A)
Experimental: as §1, §2, §3

[5] = molecular target: E. coli FimH lectin domain (FimHLD 23-10, SEQ ID NO: 1) variant F144V/F71Y (Escherichia coli, UniProt P08191, F165V/F92Y/V48A)
Experimental: as §1, §2, §3

[6] = molecular target: E. coli FimH lectin domain (FimHLD 23-10, SEQ ID NO: 1) variant F144V (Escherichia coli, UniProt P08191, F165V/V48A)
Experimental: as §1, §2, §3

Chain of E. coli FimH lectin domain (FimHLD 23-10, SEQ ID NO: 1) variant F144V/F71Y (P08191 22-180 V48A/F92Y/F165V): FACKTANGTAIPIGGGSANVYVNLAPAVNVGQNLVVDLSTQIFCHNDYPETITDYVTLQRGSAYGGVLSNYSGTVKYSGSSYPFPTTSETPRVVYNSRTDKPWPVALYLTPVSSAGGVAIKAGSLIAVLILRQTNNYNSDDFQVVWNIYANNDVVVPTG
Chain of E. coli FimH lectin domain (FimHLD 23-10, SEQ ID NO: 1) variant R60P (P08191 22-180 V48A/R81P): as the sequence (P08191 22-180 V48A/F92Y/F165V) above, with R60P, Y71F, V144F counted along it
Chain of E. coli FimH lectin domain (FimHLD 23-10, SEQ ID NO: 1) variant F144V (P08191 22-180 V48A/F165V): as the sequence (P08191 22-180 V48A/F92Y/F165V) above, with Y71F counted along it
Chain of E. coli FimH lectin domain (FimHLD 23-10, SEQ ID NO: 1) variant F71Y (P08191 22-180 V48A/F92Y): as the sequence (P08191 22-180 V48A/F92Y/F165V) above, with V144F counted along it
Chain of E. coli FimH lectin domain (FimHLD 23-10, SEQ ID NO: 1) variant R60P-Q133K (P08191 22-180 V48A/R81P/Q154K): as the sequence (P08191 22-180 V48A/F92Y/F165V) above, with R60P, Y71F, Q133K, V144F counted along it
Chain of E. coli FimH lectin domain (FimHLD 23-10, SEQ ID NO: 1) variant Q133K (P08191 22-180 V48A/Q154K): as the sequence (P08191 22-180 V48A/F92Y/F165V) above, with Y71F, Q133K, V144F counted along it

CCCCCCCO[C@H]1O[C@H](CO)[C@@H](O)[C@H](O)[C@@H]1O [n-Heptyl-α-D-mannopyranoside]
Affinity (KD) [1]: low affinity | Affinity (KD) [2]: did not bind to mannoside at all | Affinity (KD) [3]: some affinity | Affinity (KD) [4]: did not bind to mannoside at all | Affinity (KD) [5]: completely abolished | Affinity (KD) [6]: completely abolished
